# From ChEMBL document CHEMBL1201862, “PubChem BioAssay data set” (2004)
# Activity calls are given as the source filed them.
# What was measured:
# [1] = NIH-3T3 fibroblast cytotoxicity, dose response, cytotoxicity control, cell-based, fluorescence, Alamar Blue, secondary assay (AID 2327); type: functional;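 further: NIH-3T3 mouse fibroblasts cultured with fluconazole at 8 µg/mL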
# [2] = fluconazole-exposed Candida albicans growth modulators – fluorescence, retest, confirmation (AID 2467); type: functional, cell-based
# [3] = target: Induced myeloid leukemia cell differentiation protein Mcl-1 (Homo sapiens, UniProt Q07820); experiment: blockers of MCL1 binding to BIM peptide – biochemical, fluorescence polarization, BIM-BH3 peptide, 1536-well, dose response (AID 2217)
# Bcl-2-like protein 1 = Bcl-2-like protein 1 (Homo sapiens, UniProt Q07817); experiment: blockers of BCLXL peptide binding – biochemical, fluorescence polarization, 1536-well, selectivity assay for MCL1 inhibitor project, dose response (AID 2218)
# Bcl-2-related protein A1 [4] = target: T1, Bcl-2-related protein A1 (Mus musculus, UniProt Q07440); experiment: displacement of Bid BH3 peptide from Bfl-1 – biochemical, fluorescence polarization, FITC-Bid, mouse, primary screen (AID 432)
# T1 sequence (Q07440 whole entry): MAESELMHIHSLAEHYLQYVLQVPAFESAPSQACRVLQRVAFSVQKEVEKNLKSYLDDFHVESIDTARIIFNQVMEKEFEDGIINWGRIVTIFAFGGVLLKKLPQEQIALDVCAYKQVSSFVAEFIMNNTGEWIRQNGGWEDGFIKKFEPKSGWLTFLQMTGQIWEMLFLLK
# Bcl-2-related protein A1 [5] = target: T1, Bcl-2-related protein A1; experiment: small-molecule antagonists of Bfl-1/BH3 interaction – biochemical, TR-FRET, mouse Bfl-1, confirmation (AID 621);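 further: TR-FRET binding of GST-Bfl-1 to FITC-labelled Bid peptide via terbium antibody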
# BJ [6] = experiment: BJ-TERT fibroblast viability loss – cell-based, RAS-independent, luminescence, dose response (AID 1933); type: functional; settings: Homo sapiens
# Vero [7] = experiment: mammalian cell viability reduction – secondary assay, cytotoxicity control for West Nile virus antiviral project, dose response (AID 1650); type: functional; settings: Chlorocebus sabaeus
# BJ [8] = experiment: cells; type: functional, cell-based; settings: Homo sapiens
# Vero [9] = experiment: inhibition of WNV-induced cytopathic effect – cell-based, CPE readout (AID 1621); type: functional; settings: Chlorocebus sabaeus
# BJ [10] = experiment: BJ-TERT-LT-ST fibroblast viability loss – cell-based, RAS-independent, luminescence, dose response (AID 1935); type: functional; settings: Homo sapiens;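 further: BJ fibroblasts immortalized with TERT plus LT and ST oncogenes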
# [11] = DRD fibroblast viability loss – cell-based, non-viral oncogenic, luminescence, dose response (AID 1934); type: functional; settings: Homo sapiens
# Vero [12] = experiment: cells; type: functional, cell-based; settings: Chlorocebus sabaeus
# BJ [13] = experiment: growth inhibition of engineered Ras-driven BJ cells – cell-based, alamar blue fluorescence, cherrypicked samples, dose response (AID 2631); type: functional; settings: Homo sapiens;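 further: confirmatory dose-response assay in RAS-dependent BJ fibroblasts engineered with TERT, LT and ST, with cytotoxicity read by fluorescence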
# Vero [14] = experiment: cells; type: functional; settings: Chlorocebus sabaeus
# [15] = Luminescence-based dose response cell-based high throughput screening assay for cytotoxic compounds using the IEC-6 intestinal epithelial cell line. [Related pubchem assays: 1858 (Summary AID.), 1825 (Counterscreen.), 1907 (Confirmation screen.)]; type: functional
# cells = type: functional, cell-based
# [16] = target: T2, Nuclear receptor subfamily 0 group B member 1 (Homo sapiens, UniProt P51843); type: functional, cell-based;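 further: HEK293T cells transfected with SF-1 and DAX-1 plus StAR promoter luciferase reporter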
# T2 sequence (P51843 whole entry): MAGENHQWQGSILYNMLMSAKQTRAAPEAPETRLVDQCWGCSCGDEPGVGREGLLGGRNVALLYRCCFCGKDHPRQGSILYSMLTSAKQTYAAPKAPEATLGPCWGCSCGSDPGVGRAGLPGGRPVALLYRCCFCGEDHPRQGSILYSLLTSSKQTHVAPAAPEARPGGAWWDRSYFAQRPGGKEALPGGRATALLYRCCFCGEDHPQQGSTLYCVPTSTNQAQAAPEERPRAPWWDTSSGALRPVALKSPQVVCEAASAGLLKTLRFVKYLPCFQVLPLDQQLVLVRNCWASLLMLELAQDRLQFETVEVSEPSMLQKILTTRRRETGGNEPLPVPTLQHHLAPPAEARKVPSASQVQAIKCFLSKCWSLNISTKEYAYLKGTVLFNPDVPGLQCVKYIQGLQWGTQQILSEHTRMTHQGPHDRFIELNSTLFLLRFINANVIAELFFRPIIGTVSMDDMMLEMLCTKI
# Leucine aminopeptidase = target: T3, Leucine aminopeptidase (Plasmodium falciparum 3D7, UniProt Q8IL11); experiment: P. falciparum M17LAP inhibitors, primary screen, biochemical, fluorogenic H-Leu-NHMec substrate, 1536-well (AID 1619); type: functional
# T3 sequence (Q8IL11 whole entry): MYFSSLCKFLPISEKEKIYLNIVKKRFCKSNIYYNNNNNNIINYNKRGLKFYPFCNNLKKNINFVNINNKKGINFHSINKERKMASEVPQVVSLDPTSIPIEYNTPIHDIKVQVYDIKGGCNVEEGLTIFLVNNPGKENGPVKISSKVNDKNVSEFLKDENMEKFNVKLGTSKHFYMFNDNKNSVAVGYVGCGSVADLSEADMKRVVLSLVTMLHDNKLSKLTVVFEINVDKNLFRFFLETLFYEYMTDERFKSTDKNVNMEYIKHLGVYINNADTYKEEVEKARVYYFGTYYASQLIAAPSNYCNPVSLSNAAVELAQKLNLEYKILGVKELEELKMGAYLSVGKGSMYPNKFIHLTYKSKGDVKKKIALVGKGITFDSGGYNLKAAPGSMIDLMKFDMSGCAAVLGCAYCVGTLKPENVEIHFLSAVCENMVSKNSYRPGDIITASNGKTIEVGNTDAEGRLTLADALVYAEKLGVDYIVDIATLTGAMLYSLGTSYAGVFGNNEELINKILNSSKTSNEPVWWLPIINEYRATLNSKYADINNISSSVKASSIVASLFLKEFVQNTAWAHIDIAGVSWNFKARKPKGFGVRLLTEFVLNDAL
# Aspartyl aminopeptidase = Aspartyl aminopeptidase (Plasmodium falciparum 3D7, UniProt Q8I2J3); experiment: Counterscreen for inhibitors of M1 and M17 aminopeptidases: QFRET-based biochemical high throughput dose response assay for inhibitors of the Plasmodium falciparum M18 Aspartyl Aminopeptidase (PFM18AAP). [Related PubChem assays: 1619 (Screening assay (M17LAP inhibitors).), 1445 (Screening assay (M1AAP inhibitors).)]
# Procathepsin L = Procathepsin L (Homo sapiens, UniProt P07711); experiment: CTSL1 protease inhibition – biochemical, QFRET, 1536-well, counter-screen for M1/M17 aminopeptidase inhibitor project, dose response (AID 2214)
# [17] = target: T4, Replicative DNA helicase DnaB (Mycobacterium tuberculosis, UniProt P9WMR3); experiment: DnaB intein splicing inhibitors, dose response, biochemical, cell-free fluorescence (AID 449749); type: functional
# T4 sequence (P9WMR3 whole entry): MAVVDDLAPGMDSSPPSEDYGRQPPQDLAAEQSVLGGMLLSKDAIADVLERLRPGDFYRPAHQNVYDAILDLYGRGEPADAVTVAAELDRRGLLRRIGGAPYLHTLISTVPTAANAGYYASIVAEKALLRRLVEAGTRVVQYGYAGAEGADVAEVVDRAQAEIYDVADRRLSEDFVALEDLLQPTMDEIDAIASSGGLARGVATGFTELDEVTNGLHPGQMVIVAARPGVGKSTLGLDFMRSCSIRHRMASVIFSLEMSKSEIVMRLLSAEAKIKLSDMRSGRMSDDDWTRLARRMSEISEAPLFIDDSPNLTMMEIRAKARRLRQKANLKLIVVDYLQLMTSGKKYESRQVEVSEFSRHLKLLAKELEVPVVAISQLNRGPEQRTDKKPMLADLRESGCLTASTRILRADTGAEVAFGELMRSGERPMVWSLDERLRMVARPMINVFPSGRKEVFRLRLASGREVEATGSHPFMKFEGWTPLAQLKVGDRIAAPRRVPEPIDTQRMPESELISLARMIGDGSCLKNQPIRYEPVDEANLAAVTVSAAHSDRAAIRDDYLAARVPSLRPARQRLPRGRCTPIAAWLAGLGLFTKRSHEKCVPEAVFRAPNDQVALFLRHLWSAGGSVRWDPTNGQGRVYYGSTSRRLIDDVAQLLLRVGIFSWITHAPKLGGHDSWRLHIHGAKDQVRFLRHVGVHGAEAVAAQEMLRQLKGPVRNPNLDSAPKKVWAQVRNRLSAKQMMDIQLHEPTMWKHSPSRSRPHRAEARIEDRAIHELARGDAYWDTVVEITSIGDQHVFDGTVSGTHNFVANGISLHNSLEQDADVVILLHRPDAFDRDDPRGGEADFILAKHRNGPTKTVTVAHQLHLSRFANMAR
# Protein RecA = target: T5, Protein RecA (Mycobacterium tuberculosis, UniProt P9WHJ3); experiment: Fluorescence Cell-Free Homogeneous Dose Retest to Identify Inhibitors of RecA-Intein Splicing Activity. [Related pubchem assays (depositor defined):AID2097, AID2223, AID489010, AID492950]; type: functional
# T5 sequence (P9WHJ3 whole entry): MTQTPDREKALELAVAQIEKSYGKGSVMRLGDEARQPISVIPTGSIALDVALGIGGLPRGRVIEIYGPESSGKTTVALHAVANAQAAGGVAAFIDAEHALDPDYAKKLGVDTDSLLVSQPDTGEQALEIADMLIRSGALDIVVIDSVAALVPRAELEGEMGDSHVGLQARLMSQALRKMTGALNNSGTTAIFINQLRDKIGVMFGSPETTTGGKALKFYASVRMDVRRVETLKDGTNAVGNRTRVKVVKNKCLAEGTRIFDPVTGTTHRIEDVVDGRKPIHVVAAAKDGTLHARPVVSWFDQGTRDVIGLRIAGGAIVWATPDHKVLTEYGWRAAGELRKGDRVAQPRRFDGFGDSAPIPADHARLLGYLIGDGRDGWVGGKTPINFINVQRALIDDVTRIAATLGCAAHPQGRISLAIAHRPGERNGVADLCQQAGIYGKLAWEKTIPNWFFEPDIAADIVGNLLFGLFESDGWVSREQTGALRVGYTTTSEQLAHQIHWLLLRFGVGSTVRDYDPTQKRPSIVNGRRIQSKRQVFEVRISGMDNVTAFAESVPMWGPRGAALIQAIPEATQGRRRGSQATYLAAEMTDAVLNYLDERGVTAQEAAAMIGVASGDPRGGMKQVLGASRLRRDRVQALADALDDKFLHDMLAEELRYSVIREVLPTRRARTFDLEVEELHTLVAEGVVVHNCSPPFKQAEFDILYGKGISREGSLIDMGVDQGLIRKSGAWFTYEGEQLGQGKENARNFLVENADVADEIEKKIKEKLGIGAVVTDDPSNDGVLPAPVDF
# [18] = Luminescence Cell-Based Dose Response to Identify Activators of 5'UTR Stem-Loop Driven Prion Protein mRNA Translation in H4-C Neuroglioblastoma Cells. [Related pubchem assays: 1829 (Project Summary), 1814 (Primary HTS)]; type: functional
# [19] = Luminescence Cell-Based Dose Response HTS to Identify Activators of Luciferase Translation or Activity in H4 […] Cells. [Related pubchem assays: 1829 (Project Summary), 1814 (Primary HTS)]; type: functional
# H4 = experiment: Luminescence Cell-Based Dose Response HTS to Identify Activators of 5'UTR Stem-Loop Driven Prion Protein mRNA Translation in H4 Neuroglioblastoma Cells. [Related pubchem assays: 1829 (Project Summary), 1814 (Primary HTS)]; type: functional; settings: Homo sapiens
# [20] = Luminescence Cell-Based Dose Response to Identify Activators of Luciferase Translation or Activity in H4-C Neuroglioblastoma Cells. [Related pubchem assays: 1829 (Project Summary), 1814 (Primary HTS)]; type: functional
# [21] = Luminescence Cell-Based Dose Confirmation to Identify Activators of 5'UTR Stem-Loop Driven Alpha-Synuclein mRNA Translation in H4 Neuroglioblastoma Cells. [Related pubchem assays: 1829 (Project Summary), 1814 (Primary HTS)]; type: functional
# Procathepsin L, sequence (P07711 whole entry): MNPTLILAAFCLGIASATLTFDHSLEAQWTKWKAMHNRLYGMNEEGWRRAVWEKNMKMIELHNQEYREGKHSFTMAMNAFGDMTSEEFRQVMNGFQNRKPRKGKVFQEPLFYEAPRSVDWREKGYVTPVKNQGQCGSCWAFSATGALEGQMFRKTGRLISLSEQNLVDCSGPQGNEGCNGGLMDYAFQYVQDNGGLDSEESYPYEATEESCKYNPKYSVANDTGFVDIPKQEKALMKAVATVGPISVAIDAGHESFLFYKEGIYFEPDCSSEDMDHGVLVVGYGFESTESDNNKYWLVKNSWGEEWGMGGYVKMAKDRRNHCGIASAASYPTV
# Aspartyl aminopeptidase, sequence (Q8I2J3 whole entry): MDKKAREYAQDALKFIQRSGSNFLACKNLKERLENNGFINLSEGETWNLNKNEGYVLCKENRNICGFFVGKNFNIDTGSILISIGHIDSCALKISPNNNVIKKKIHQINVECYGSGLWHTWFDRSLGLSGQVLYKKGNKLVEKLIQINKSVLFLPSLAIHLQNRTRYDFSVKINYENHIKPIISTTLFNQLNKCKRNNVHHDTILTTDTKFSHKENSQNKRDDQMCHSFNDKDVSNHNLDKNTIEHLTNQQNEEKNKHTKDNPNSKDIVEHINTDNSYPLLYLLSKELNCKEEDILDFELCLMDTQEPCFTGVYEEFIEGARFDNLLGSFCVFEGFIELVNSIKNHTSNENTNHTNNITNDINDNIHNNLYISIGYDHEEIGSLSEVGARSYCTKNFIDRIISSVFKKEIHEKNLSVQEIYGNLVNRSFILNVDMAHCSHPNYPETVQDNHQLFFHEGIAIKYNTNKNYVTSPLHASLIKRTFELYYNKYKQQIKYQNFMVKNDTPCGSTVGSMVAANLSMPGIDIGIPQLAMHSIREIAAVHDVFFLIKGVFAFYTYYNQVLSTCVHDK
# Bcl-2-like protein 1, sequence (Q07817 whole entry): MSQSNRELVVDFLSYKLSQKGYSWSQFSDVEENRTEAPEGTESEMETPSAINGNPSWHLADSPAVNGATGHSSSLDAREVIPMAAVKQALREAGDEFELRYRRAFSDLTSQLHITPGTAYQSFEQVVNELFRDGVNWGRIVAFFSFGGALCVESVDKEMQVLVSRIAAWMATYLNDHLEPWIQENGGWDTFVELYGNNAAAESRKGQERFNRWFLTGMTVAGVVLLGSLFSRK
# Induced myeloid leukemia cell differentiation protein Mcl-1, sequence (Q07820 whole entry): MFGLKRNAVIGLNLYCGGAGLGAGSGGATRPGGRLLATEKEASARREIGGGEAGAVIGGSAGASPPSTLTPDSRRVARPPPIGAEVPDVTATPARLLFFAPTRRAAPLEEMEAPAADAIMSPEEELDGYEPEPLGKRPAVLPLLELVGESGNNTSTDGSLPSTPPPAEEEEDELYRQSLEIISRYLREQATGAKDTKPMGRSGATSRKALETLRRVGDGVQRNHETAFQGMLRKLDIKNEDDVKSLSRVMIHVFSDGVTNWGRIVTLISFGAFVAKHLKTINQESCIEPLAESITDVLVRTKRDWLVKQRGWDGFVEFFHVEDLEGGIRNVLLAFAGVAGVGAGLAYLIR
structure (smiles),measurement,setting,value
CC12CCC(C(=O)N(NC(=O)c3ccccc3O)C1=O)C2(C)C (configuration not stated),EC50,[1],> 160 µM (inactive)
same,EC50,[2],> 38 µM (not active)
same,IC50,[3],> 109 µM (not active)
same,IC50,Bcl-2-like protein 1,> 109 µM (not active)
OCCCc1nc2n(n1)C(c1cccs1)C=C(c1ccccc1)N2 (configuration not stated),IC50,Bcl-2-related protein A1 [4],> 100 µM (not active)
same,IC50,Bcl-2-related protein A1 [5],> 100 µM (not active)
Cc1ccc(NC(=O)[C@H](Cc2c[nH]c3ccccc23)NC(=O)[C@@H]2Cc3ccccc3CN2)c(C)c1,EC50,BJ [6],21.1 µM (active)
same,CC50,Vero [7],12.5 µM (active)
same,EC50,BJ [8],20.7 µM (active)
same,IC50,Vero [9],43.3 µM (active)
same,EC50,BJ [10],> 150 µM (not active)
same,EC50,[11],112 µM (inconclusive)
same,IC50,Vero [12],1.91 µM (active)
same,EC50,BJ [13],> 133 µM (inactive)
same,CC50,Vero [14],15.9 µM (active)
N#Cc1c(NC(=O)/C=C/c2ccco2)sc2c1CCCC2,EC50,BJ [6],0.181 µM (active)
same,EC50,BJ [8],1.48 µM (inconclusive)
same,IC50,[15],0.136 µM (active)
same,EC50,[11],0.278 µM (active)
same,EC50,BJ [13],< 0.104 µM (active)
same,IC50,cells,> 67.6 µM (inactive)
same,IC50,[16],1.43 µM (active)
CCOc1cccc(-c2cc(O)[nH]n2)c1,IC50,Leucine aminopeptidase,1.25 µM (active)
same,IC50,Aspartyl aminopeptidase,> 73.5 µM (not active)
same,IC50,Procathepsin L,> 59.6 µM (not active)
same,AC50,[17],2.18 µM (active)
same,EC50,Protein RecA,0.695 µM (active)
Cc1nc2c(-c3ccccc3)cnn2c(N2CCOCC2)c1C,EC50,[18],0.246 µM (active)
same,EC50,[19],< 0.1 µM (active)
same,EC50,H4,0.108 µM (active)
same,EC50,[20],0.246 µM (active)
same,EC50,[21],2.38 µM (active)
